Source: PubChem BioAssay AID248 (DTP/NCI, 2004)
Where “and” joins values, the source holds several entries; their conditions need not be identical. Identical values can stand only once. Toxic doses and inconclusive results are not listed. No stated cut-off is given here; in the data, active means T/C of 150% or more; inactive means T/C below 125%.

Tested on: L1210 leukemia ip in BDF1 mice, survival T/C
Experiment: NCI In Vivo Anticancer Drug Screen. Data for tumor model L1210 Leukemia (intraperitoneal) in B6D2F1 (BDF1) mice
Settings: endpoint: mean survival time, higher = longer survival
Outline: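 Read-out is survival time, reported as the treated-group measurement over the vehicle-control measurement.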

[1] = dose: 100.0 mg/kg/injection, schedule: Q01DX009 (ip), vehicle: Klucel (hydroxypropylcellulose) (HPC)
[2] = dose: 100.0 mg/kg/injection, schedule: Q04DX003 (ip), vehicle: Klucel (hydroxypropylcellulose) (HPC)
[3] = dose: 200.0 mg/kg/injection, schedule: Q01DX009 (ip), vehicle: Klucel (hydroxypropylcellulose) (HPC)
[4] = dose: 200.0 mg/kg/injection, schedule: Q04DX003 (ip), vehicle: Klucel (hydroxypropylcellulose) (HPC)
[5] = dose: 400.0 mg/kg/injection, schedule: Q01DX009 (ip), vehicle: Klucel (hydroxypropylcellulose) (HPC)
[6] = dose: 400.0 mg/kg/injection, schedule: Q04DX003 (ip), vehicle: Klucel (hydroxypropylcellulose) (HPC)
[7] = dose: 100.0 mg/kg/injection, schedule: Q01DX001 (ip), vehicle: Klucel (hydroxypropylcellulose) (HPC)
[8] = dose: 200.0 mg/kg/injection, schedule: Q01DX001 (ip), vehicle: Klucel (hydroxypropylcellulose) (HPC)
[9] = dose: 100.0 mg/kg/injection, schedule: Q04DX003 (ip), vehicle: saline
[10] = dose: 200.0 mg/kg/injection, schedule: Q04DX003 (ip), vehicle: saline
[11] = dose: 400.0 mg/kg/injection, schedule: Q04DX003 (ip), vehicle: saline
[12] = dose: 50.0 mg/kg/injection, schedule: Q01DX001 (ip), vehicle: carboxymethylcellulose (CMC)
[13] = dose: 100.0 mg/kg/injection, schedule: Q01DX001 (ip), vehicle: carboxymethylcellulose (CMC)
[14] = dose: 200.0 mg/kg/injection, schedule: Q01DX001 (ip), vehicle: carboxymethylcellulose (CMC)
[15] = dose: 400.0 mg/kg/injection, schedule: Q01DX001 (ip), vehicle: carboxymethylcellulose (CMC)
[16] = dose: 100.0 mg/kg/injection, schedule: Q01DX001 (ip), vehicle: saline
[17] = dose: 200.0 mg/kg/injection, schedule: Q01DX001 (ip), vehicle: saline
[18] = dose: 100.0 mg/kg/injection, schedule: Q04DX003 (ip), vehicle: other
[19] = dose: 200.0 mg/kg/injection, schedule: Q04DX003 (ip), vehicle: other
[20] = dose: 400.0 mg/kg/injection, schedule: Q04DX003 (ip), vehicle: other
[21] = dose: 100.0 mg/kg/injection, schedule: Q04DX002 (ip), vehicle: saline
[22] = dose: 200.0 mg/kg/injection, schedule: Q04DX002 (ip), vehicle: saline
[23] = dose: 100.0 mg/kg/injection, schedule: Q04DX002 (ip), vehicle: Klucel (hydroxypropylcellulose) (HPC)
[24] = dose: 200.0 mg/kg/injection, schedule: Q04DX002 (ip), vehicle: Klucel (hydroxypropylcellulose) (HPC)
[25] = dose: 400.0 mg/kg/injection, schedule: Q04DX002 (ip), vehicle: Klucel (hydroxypropylcellulose) (HPC)
[26] = dose: 50.0 mg/kg/injection, schedule: Q01DX009 (ip), vehicle: Klucel (hydroxypropylcellulose) (HPC)
[27] = dose: 100.0 mg/kg/injection, schedule: Q04DX003 (ip), vehicle: acetone
[28] = dose: 200.0 mg/kg/injection, schedule: Q04DX003 (ip), vehicle: acetone
[29] = dose: 400.0 mg/kg/injection, schedule: Q04DX003 (ip), vehicle: acetone

Measured: T/C

CCOC(=O)c1cnc(SC)nc1Nc1cccc(Br)c1
inactive: [1] 91 % of control | [2] 97 % of control | [3] 96 % of control | [4] 92 % of control | [5] 93 % of control | [6] 90 % of control

O=C1C(Cl)=C(Nc2ccccc2)C(=O)c2ccccc21
inactive: [2] 101 % of control | [4] 101 % of control | [6] 102 % of control

CCOC(=O)/C(C#N)=C(\CC)c1ccccc1
inactive: [1] 98 % of control | [3] 101 % of control

O=C(OCc1ccccc1CN1CCCC1)c1cccc(Br)c1
inactive: [7] 95 % of control | [8] 98 % of control

BrC1=C(Br)C2(Br)C(c3ccccc3)CC1(Br)C2(Br)Br (configuration not stated)
inactive: [9] 92 % of control | [10] 106 % of control | [11] 92 % of control

CNC(=O)OCC1=CC(=O)C=CC1=O
inactive: dose: 6.25 mg/kg/injection, schedule: Q04DX003 (ip), vehicle: Klucel (hydroxypropylcellulose) (HPC) 92 % of control | dose: 12.5 mg/kg/injection, schedule: Q01DX001 (ip), vehicle: Klucel (hydroxypropylcellulose) (HPC) 93 % of control | dose: 12.5 mg/kg/injection, schedule: Q04DX003 (ip), vehicle: Klucel (hydroxypropylcellulose) (HPC) 94 % of control | dose: 25.0 mg/kg/injection, schedule: Q01DX001 (ip), vehicle: Klucel (hydroxypropylcellulose) (HPC) 96 % of control

NCC1OC(n2cnc3c(N)ncnc32)CC1O (configuration not stated)
inactive: [12] 107 % of control | [13] 107 % of control | [14] 109 % of control | [15] 104 % of control

CC(=O)Nc1ccc(P(=O)(O)O)cc1[N+](=O)[O-]
inactive: [9] 91 % of control | [10] 102 % of control | [11] 115 % of control

O=C(O)CCCCCCC(=O)c1ccccc1
inactive: dose: 100.0 mg/kg/injection, schedule: Q01DX001 (ip), vehicle: saline with Tween-80 98 % of control | dose: 200.0 mg/kg/injection, schedule: Q01DX001 (ip), vehicle: saline with Tween-80 95 % of control | dose: 400.0 mg/kg/injection, schedule: Q01DX001 (ip), vehicle: saline with Tween-80 98 % of control

O=C(Nc1ccnc(=O)[nH]1)c1ccccc1
inactive: [7] 91 % of control | [8] 100 % of control | dose: 400.0 mg/kg/injection, schedule: Q01DX001 (ip), vehicle: Klucel (hydroxypropylcellulose) (HPC) 92 % of control

O=C(O)C1CCC[N-]C1.O=C(O)C1CCC[N-]C1.O=C(O)C1CCC[N-]C1.O=C(O)C1CCC[N-]C1.[Cl][Rh][Cl] (configuration not stated)
inactive: dose: 100.0 mg/kg/injection, schedule: Q01DX009 (ip), vehicle: saline 104 % of control | [9] 96 % of control | dose: 200.0 mg/kg/injection, schedule: Q01DX009 (ip), vehicle: saline 104 % of control | [10] 102 % of control | dose: 400.0 mg/kg/injection, schedule: Q01DX009 (ip), vehicle: saline 90 % of control | [11] 96 % of control

Cc1noc(NS(=O)(=O)c2ccc(N=Nc3ccc(N)nc3N)cc2)c1C
inactive: [16] 105 % of control | [17] 98 % of control | dose: 400.0 mg/kg/injection, schedule: Q01DX001 (ip), vehicle: saline 100 % of control

Nc1cc2c3ccccc3c(F)cc2c2ccccc12
inactive: [1] 106 % of control | [2] 96 % of control | [3] 104 % of control | [4] 93 % of control | [5] 101 % of control | [6] 98 % of control

CC(C)=CCC/C(C)=C/Cn1c(=O)cc[nH]c1=O
inactive: [18] 96 % of control | [19] 86 % of control | [20] 86 % of control

CCOC(=O)c1ccc(S(=O)(=O)N(CC)CC)cc1
inactive: [12] 89 % of control | [13] 96 % of control | [14] 91 % of control | [15] 102 % of control

O=C1OCC/C1=C\C1CO1 (configuration not stated)
inactive: [21] 97 % of control | [22] 95 % of control | dose: 400.0 mg/kg/injection, schedule: Q04DX002 (ip), vehicle: saline 101 % of control

c1ccc(-c2sc(-c3ccccc3)c(-c3ccccc3)c2-c2ccccc2)cc1
inactive: [2] 93 % of control | [4] 95 % of control | [6] 95 % of control

O=C(Nc1ccccc1)/C(Cl)=C/O
inactive: [23] 91 % of control | [24] 94 % of control | [25] 97 % of control

C/C=C\C=N\NC(=O)CCCCCCCCCCC
inactive: dose: 25.0 mg/kg/injection, schedule: Q01DX009 (ip), vehicle: Klucel (hydroxypropylcellulose) (HPC) 105 % of control | [26] 91 % of control | [1] 100 % of control and 90 % of control

O=c1c2c(=O)c3ccccc3c(=O)c=2c(=O)c2ccccc12
inactive: [23] 93 % of control | [24] 89 % of control | [25] 89 % of control

Cc1cc(S(=O)(=O)NO)c(N)cc1Cl
inactive: [26] 108 % of control | [1] 99 % of control | [3] 99 % of control

O=C(O)C1CCCCC1
inactive: [12] 96 % of control | [13] 98 % of control | [14] 104 % of control | [15] 96 % of control

ClCC1(CCl)COC(c2ccccc2)OC1
inactive: dose: 100.0 mg/kg/injection, schedule: Q04DX003 (ip), vehicle: saline with Tween-80 95 % of control | dose: 200.0 mg/kg/injection, schedule: Q04DX003 (ip), vehicle: saline with Tween-80 93 % of control | dose: 400.0 mg/kg/injection, schedule: Q04DX003 (ip), vehicle: saline with Tween-80 92 % of control

CC(=O)NC1CCCCC1c1ccc(C2CCCCC2NC(C)=O)cc1 (configuration not stated)
inactive: [16] 98 % of control | [17] 98 % of control

CC(NC(=O)c1ccccc1)C(=O)Nc1ccccc1 (configuration not stated)
inactive: [23] 101 % of control | [24] 114 % of control | [25] 108 % of control

CN(C(=O)NCCCl)C1CCCCC1
inactive: dose: 75.0 mg/kg/injection, schedule: Q01DX001 (ip), vehicle: carboxymethylcellulose (CMC) 106 % of control

CC1CC(=O)NN1 (configuration not stated)
inactive: dose: 100.0 mg/kg/injection, schedule: Q01DX009 (ip), vehicle: saline with Tween-80 94 % of control | dose: 200.0 mg/kg/injection, schedule: Q01DX009 (ip), vehicle: saline with Tween-80 90 % of control | dose: 400.0 mg/kg/injection, schedule: Q01DX009 (ip), vehicle: saline with Tween-80 96 % of control

O=C1Nc2ccccc2C(=O)Nc2ccccc21
inactive: [27] 98 % of control | [28] 93 % of control | [29] 101 % of control

CCOC(=O)c1ccc(Nc2sc(C(=O)c3ccc(Br)cc3)c(N)c2C#N)cc1
inactive: dose: 100.0 mg/kg/injection, schedule: Q04DX002 (ip), vehicle: saline with Tween-80 102 % of control | dose: 200.0 mg/kg/injection, schedule: Q04DX002 (ip), vehicle: saline with Tween-80 94 % of control | dose: 400.0 mg/kg/injection, schedule: Q04DX002 (ip), vehicle: saline with Tween-80 88 % of control

N#CC1C2CCC(C2)C1CCCNCCCC1C2CCC(C2)C1C#N (configuration not stated)
inactive: [21] 97 % of control | [22] 104 % of control

CCCCCCCCCCCCCCCOc1ccc(C)cc1
inactive: [2] 93 % of control | [4] 101 % of control | [6] 95 % of control

O=C(C1=CC(c2ccccc2)=Nc2ccccc2N1)c1ccccc1
inactive: [18] 89 % of control | [19] 110 % of control | [20] 94 % of control

CC(O)c1cccc(NC(=O)NC(C)(C)C)c1 (configuration not stated)
inactive: [1] 102 % of control | [3] 107 % of control | [5] 113 % of control

C=CCN(CC=C)CCSC(=S)NCCOC
inactive: dose: 100.0 mg/kg/injection, schedule: Q01DX001 (ip), vehicle: acetone 100 % of control | [27] 107 % of control | dose: 200.0 mg/kg/injection, schedule: Q01DX001 (ip), vehicle: acetone 97 % of control | [28] 106 % of control | dose: 400.0 mg/kg/injection, schedule: Q01DX001 (ip), vehicle: acetone 90 % of control | [29] 107 % of control
